Values of other authors in patent publication US6790445B1, “Preservatives for vaccines” (Merck & Co., Inc., priority 1997, dated 2004).

What was measured:
[1] = at 4° C.
population = details: in vivo
[2] = in vivo
mice = details: intraperitoneally

OCCOc1ccccc1 [2-Phenoxyethanol, 2-phenoxyethanol]
acute oral LD50 (rats): 1.26 to 2.33 mL/kg
acute dermal LD50 (rabbits): 2.0 mL/kg

N[C@@H](Cc1c[nH]cn1)C(=O)O [histidine, L-histidine]
pKa [1]: 7

C[CH2][Hg][S]c1ccccc1C(=O)[O-].[Na+] [Thimerosal]
allergic reaction, share of the population (population): about sixteen

OCc1ccccc1 [Benzyl Alcohol, benzyl alcohol]
probable lethal dose [2]: 0.5 to 5.0 g/kg

COC(=O)c1ccc(O)cc1 [Methyl Paraben, methyl paraben]
LD50 (mice): 1 g/kg
